# Where a name gives a salt, the structure may show the parent alone.
# Tests used:
# [1] = Stability test under oxidation condition (0.3% hydrogen peroxide solution, HPLC total related substances); format: physicochemical; settings: room temperature, 24 hours, HPLC area ratio of total related substances
# Excerpt: (§1) This experiment is designed to confirm the storage stability of the various acid salts of tolterodine.
# (§2) For a pharmaceutical drug to be processed into a certain formulation it is essential to be provided with sufficient storage stability. For example, for tablets or capsules, it is necessary for them to have stability in atmospheric condition, for injections, stability in moisture (water), and for patches, both stability in atmospheric condition and in moisture (water).
# [2] = Stability test under acid condition (HPLC total impurities); format: physicochemical; settings: acid condition (details not described)
# Excerpt: as §1, §2
# [3] = Alkali stability test (1M sodium hydroxide solution, HPLC total related substances); format: physicochemical; settings: room temperature, 24 hours, HPLC area ratio of total related substances
# Excerpt: as §1, §2
# [4] = In vitro penetration test, Frantz cell mounted with hairless mouse skin; settings: 10 mg/mL in propylene glycol, 32° C.
# Experimental: I mL of tolterodine salt was added onto a Frantz cell, which was mounted with a hairless mouse skin. Then, the amount of tolterodine penetrated through the skin at 32° C. was quantitated and its cumulative amount was measured.
Molecule,"Total impurities, oxidation condition [1]","Total impurities, acid condition [2]","Total impurities, alkali condition [3]",Cumulative amount of tolterodine penetrated through the skin ([4]; 0 hr),Cumulative amount of tolterodine penetrated through the skin ([4]; 3 hr),Cumulative amount of tolterodine penetrated through the skin ([4]; 6 hr),Cumulative amount of tolterodine penetrated through the skin ([4]; 9 hr),Cumulative amount of tolterodine penetrated through the skin ([4]; 12 hr)
"Cc1ccc(O)c(C(CCN(C(C)C)C(C)C)c2ccccc2)c1.O=C(O)c1ccc2ccccc2c1O (stereo not drawn) [tolterodine 1-hydroxy-2-naphtate, tolterodine 1-hydroxy-2-naphthate]",0.33 % area,0.10 % area,0.15 % area,–,–,–,–,–
"Cc1ccc(O)c([C@H](CCN(C(C)C)C(C)C)c2ccccc2)c1.O=C1CC[C@@H](C(=O)O)N1 [tolterodine L-pyroglutamate, Tolterodine L-Pyroglutamate]",0.56 % area,0.03 % area,0.08 % area,–,–,–,–,–
"Cc1ccc(O)c([C@H](CCN(C(C)C)C(C)C)c2ccccc2)c1.O=C(O)c1ccccc1 [tolterodine benzoate, Tolterodine Benzoate]",0.39 % area,0.02 % area,0.10 % area,–,–,–,–,–
"Cc1ccc(O)c([C@H](CCN(C(C)C)C(C)C)c2ccccc2)c1 [tolterodine free base, 2-[(1R)-3-(diisopropylamino)-1-phenylpropyl)-4-methylphenol, reference compound]",4.74 % area,0.59 % area,0.83 % area,–,–,–,–,–
"Cc1ccc(O)c([C@H](CCN(C(C)C)C(C)C)c2ccccc2)c1.O=C(O)c1cc(O)ccc1O [tolterodine gentisate, Tolterodine Gentisate]",0.23 % area,0.03 % area,0.04 % area,–,–,–,–,–
"Cc1ccc(O)c([C@H](CCN(C(C)C)C(C)C)c2ccccc2)c1.Cc1ccc(O)c([C@H](CCN(C(C)C)C(C)C)c2ccccc2)c1.O=S(=O)(O)c1cccc2c(S(=O)(=O)O)cccc12 [tolterodine hemi naphthalene-1,5-disulfonate]",0.40 % area,0.07 % area,0.11 % area,–,–,–,–,–
"Cc1ccc(O)c([C@H](CCN(C(C)C)C(C)C)c2ccccc2)c1.Cc1ccc(O)c([C@H](CCN(C(C)C)C(C)C)c2ccccc2)c1.O=C(O)CCCCC(=O)O [tolterodine hemiadipate, Tolterodine Hemiadipate]",0.39 % area,0.14 % area,0.10 % area,–,–,–,–,–
"Cc1ccc(O)c([C@H](CCN(C(C)C)C(C)C)c2ccccc2)c1.O=C(O)CNC(=O)c1ccccc1 [tolterodine hippurate, Tolterodine Hippurate]",0.41 % area,0.11 % area,0.14 % area,–,–,–,–,–
"CC1=C(/C=C/C(C)=C/C=C/C(C)=C/C(=O)O)C(C)(C)CCC1.Cc1ccc(O)c([C@H](CCN(C(C)C)C(C)C)c2ccccc2)c1 [tolterodine retinoate, Tolterodine Retinoate]",0.08 % area,0.15 % area,0.19 % area,0.0 µg,0.5 µg,1.7 µg,2.5 µg,4.1 µg
"Cc1ccc(O)c([C@H](CCN(C(C)C)C(C)C)c2ccccc2)c1 [tolterodine tartrate, reference compound]",0.98 % area,0.20 % area,0.29 % area,–,–,–,–,–
Tolterodine Benzene Sulfonate [tolterodine benzenesulfonate],0.51 % area,0.02 % area,0.08 % area,0.0 µg,0.0 µg,0.4 µg,0.8 µg,1.7 µg
Tolterodine Glucolate,0.44 % area,0.11 % area,0.23 % area,–,–,–,–,–
Tolterodine Toluene Sulfonate [tolterodine p-toluenesulfonate],0.09 % area,0.11 % area,0.06 % area,0.0 µg,1.1 µg,8.0 µg,19.9 µg,36.6 µg

# — patent US8367726B2, “Acid salt of tolterodine having effective stability for transdermal drug delivery system” (SK Chemicals Co., Ltd., priority 2008, dated 2013)
